Laboratory results reported in US20180263993A1, “METHOD FOR PREVENTING AND/OR TREATING CHRONIC TRAUMATIC ENCEPHALOPATHY-IV” (Eustralis Pharmaceuticals Limited (trading as Pressura …, priority 2013, published 2018).

Tested on: tau phosphorylation
Assay: Tau phosphorylation after concussive injury in the rat (phosphorylated tau immunohistology)
Format: in vivo
Conditions: rat concussion model; 1 mg/kg intravenously at 30 min after induction of injury; assessed 3 days after the concussive event; compared with injured and non-injured animals
Excerpt: Note that concussive injury in the rat causes extensive tau phosphorylation (B) by 3 days after the concussive event compared to non-injured animals (A).
Having established that hyperphosphorylated tau accumulates perivascularly following concussive injury, we used an animal model of concussion to investigate whether concussion causes perivascular release of substance P. We developed a rodent model of concussion to replicate the concussive event (Donkin et al., 2004, 7th International Neurotrauma Symposium, pp 75-78, Medimond Publishers, Bologna, Italy) and subsequently determined whether substance P was released after such an event. There was a clear increase in brain perivascular substance P immunoreactivity after the concussive event (FIG. 2).
Having shown that mechanical injury causes release of substance P after concussive injury, we then investigated whether a compound of formula (I) reduces tau hyperphosphorlation after concussive injury. […] Note that concussive injury in the rat causes extensive tau phosphorylation (B) by 3 days after the concussive event compared to non-injured animals (A). […] Thus, administration of a compound of formula (I) prevents tau hyperphosphorylation and thus prevents the development of CTE.

## Cc1ccccc1-c1cc(N2CCOCC2)ncc1N(C)C(=O)C(C)(C)c1cc(C(F)(F)F)cc(C(F)(F)F)c1 [compound of formula (I), 2-[3,5-bis(trifluoromethyl)phenyl]-N,2-dimethyl-N-[4-(2-methylphenyl)-6-morpholin-4-ylpyridin-3-yl]propanamide]
  effect on tau phosphorylation after concussive injury: almost complete inhibition of tau phosphorylation
